Measurements published in patent publication US4568685A, “N-[(1H-1,2,4-Triazol-1-yl)alkyl]-arylamides” (American Cyanamid Company, priority 1984, dated 1986).
Counter-ions that a name gives are not always drawn.

Tested on: spontaneously hypertensive rats
Test: Hypotensive activity in spontaneously hypertensive rats (mean arterial blood pressure)
Type: in vivo, spontaneously hypertensive rats of the Okamoto strain
Details: gavage, about 100 mg/kg or less, two doses 24 hours apart, measured at about 28 hours; average MABP of the SHR 170 ±1.5 mm Hg; number of rats in parentheses
Protocol: Hypotensive Activity in Spontaneously Hypertensive Rats
The novel compounds of the present invention are active hypotensive agents and were tested for hypotensive activity by the method of P. S. Chan and D. Poorvin, Clinical and Experimental Hypertension, 1 (6), 817-830 (1979). Male, 16 week old, spontaneously hypertensive rats of the Okamoto strain, from Taconic Farms, Germantown, N.Y., having an average mean arterial blood pressure of 170 ±1.5 mm of mercury are used in the test. One to 3 rats are used per test compound. A rat is dosed by gavage with a test compound, suspended in approximately 2% pre-boiled starch at a concentration of about 50 mg/ml, at a dose of about 100 mg/kg of body weight or less, with approximately 0.9% sodium chloride loading at a dose of about 25 ml/kg of body weight. A second identical dose of the test compound, without sodium chloride loading, is given about 24 hours later. At about 28 hours after the initial dose the mean arterial blood pressure is measured by the method of Chan and Poorvin vide supra. The procedure is repeated in a second and third rat when necessary.

`O=C1c2ccccc2C(=O)N1CCCCn1cncn1` [2-[4-(1H-1,2,4-triazol-1-yl)butyl]-1H-isoindol-1,3(2H)-dione] was tested, and the “MABP (mean arterial blood pressure)” value was 119 mm Hg.

`O=C(NCCCCn1cncn1)c1ccc(Cl)c(Cl)c1` [Example 5, 3,4-Dichloro-N-[4-(1H-1,2,4-triazol-1-yl)butyl]benzamide] was tested, and the “MABP (mean arterial blood pressure)” value was 141 mm Hg.

In the case of `O=C(NCCCCn1cncn1)c1ccccc1-c1ccccc1` [Example 6, N--[4-(1H--1,2,4-triazol-1-yl)butyl] [1,1'-biphenyl]-2-carboxamide, fumarate], the “MABP (mean arterial blood pressure)” value is reported as 145 mm Hg.

With `O=C(NCCCCn1cncn1)c1ccc(Br)cc1` [Example 8, 4-bromo-N--[4-(1H--1,2,4-triazol-1-yl)butyl]benzamide] the “MABP (mean arterial blood pressure)” value was 137 mm Hg.

`O=C(NCCCn1cncn1)c1ccc(Cl)c(Cl)c1` [Example 12, 3,4-Dichloro-N-[3-(1H-1,2,4-triazol-1-yl)propyl]benzamide] was tested, and the “MABP (mean arterial blood pressure)” value was 150 mm Hg.

For `CC(C)(C)c1ccc(C(=O)NCCCn2cncn2)cc1` [Example 13, 4-(1,1-dimethylethyl)-N--[3-(1H--1,2,4-triazol-1-yl)propyl]benzamide], the “MABP (mean arterial blood pressure)” value was 123 mm Hg.

For `N#Cc1ccc(C(=O)NCCCn2cncn2)cc1` [Example 19, 4-cyano-N--[3-(1H--1,2,4-triazol-1-yl)propyl]benzamide], the “MABP (mean arterial blood pressure)” value was 119 mm Hg.

With `Cc1ccc(C(=O)NCCCn2cncn2)cc1` [Example 21, 4-methyl-N--[3-(1H--1,2,4-triazol-1-yl)propyl]benzamide] the “MABP (mean arterial blood pressure)” value was 145 mm Hg.

With `O=C(NCCCn1cncn1)c1ccc(Br)cc1` [Example 23, 4-bromo-N--[3-(1H--1,2,4-triazol-1-yl)propyl]benzamide] the “MABP (mean arterial blood pressure)” value was 147 mm Hg.

In the case of `O=C(NCCCn1cncn1)c1ccccc1` [Example 24, N--[3-(1H--1,2,4-triazol-1-yl)propyl]benzamide], the “MABP (mean arterial blood pressure)” value is reported as 124 mm Hg.

`O=C(NCCCn1cncn1)c1ccc(I)cc1` [Example 27, 4-Iodo-N-[3-(1H-1,2,4-triazol-1-yl)propyl]benzamide] was tested, and the “MABP (mean arterial blood pressure)” value was 128 mm Hg.

For `O=C(C=Cc1ccc(Cl)cc1)NCCCn1cncn1` [Example 29, 3-(4-chlorophenyl)-N--[3-(1H--1,2,4-triazol-1-yl)propyl]-2-propenamide], the “MABP (mean arterial blood pressure)” value was 137 mm Hg.

`CS(=O)(=O)c1ccc(C(=O)NCCCn2cncn2)cc1` [Example 32, 4-(methylsulfonyl)-N--[3-(1H--1,2,4-triazol-1-yl)propyl]benzamide] was tested, and the “MABP (mean arterial blood pressure)” value was 110 mm Hg.

`CN(C)c1ccc(C(=O)NCCCn2cncn2)cc1` [Example 37, 4-(dimethylamino)-N--[3-(1H--1,2,4-triazol-1-yl)propyl]benzamide] was tested, and the “MABP (mean arterial blood pressure)” value was 117 mm Hg.

In the case of `O=C(Cc1cccc2ccccc12)NCCCCn1cncn1` [N--[4-(1H--1,2,4-triazol-1-yl)butyl]-1-naphthalene acetamide, fumarate], the “MABP (mean arterial blood pressure)” value is reported as 134 mm Hg.
